These results are taken from patent publication US20230263822A1, “MODULATION OF FACTOR 11 EXPRESSION” (Ionis Pharmaceuticals, Inc., priority 2008, published 2023).

Strand notation (5' to 3'): a small letter for the sugar, then the base; units joined by * are phosphorothioate-linked, units joined directly phosphodiester-linked; [ ] holds rarer units or linkages, { } end groups; capitals alone tell only the bases. e = 2'-O-(2-methoxyethyl) (MOE); [5mC] = 5-methylcytosine; d = 2'-deoxy (DNA)

For one data set, the system named is mouse Factor 11 mRNA. Put plainly: Sense-oligonucleotide antidote: Factor 11 mRNA in liver (Example 23). Format: in vivo, BALB/c mice. On the procedure:
The effect of the specific sense oligonucleotide to ISIS 404071 as an antidote was tested in BALB/c mice. In a first cohort, ISIS 404071 was administered subcutaneously to BALB/c mice twice a week for three weeks at a dose of 40 mg/kg. In a second cohort, ISIS 404057 was administered subcutaneously to BALB/c mice twice a week for three weeks at a dose of 40 mg/kg. The ISIS 404071 specific antidote, ISIS 418026 ([…]; complementary to ISIS 404071), incorporated herein as SEQ ID NO: 13, was administered to both cohorts subcutaneously in a single injection of 90 mg/kg 48 hours after the final treatment of ISIS 404071 or 404057. In a third cohort, ISIS 404071 was administered subcutaneously to BALB/c mice twice a week for three weeks at a dose of 40 mg/kg. Following the last treatment of ISIS 404071, mice were injected subcutaneously injected with PBS. In a fourth cohort, ISIS 404057 was administered subcutaneously to BALB/c mice twice a week for three weeks at a dose of 40 mg/kg. Following the last treatment of ISIS 404057, mice were injected subcutaneously injected with PBS. Following antidote administration, a set of 4 mice from each cohort were sacrificed at 12 hours, 1 day, 2 days, 3 days, 7 days, and 14 days. Whole liver was collected for RNA analysis and PPP was collected for aPTT analysis.
RNA was extracted from liver tissue for real-time PCR analysis of Factor 11. Results are presented as percent inhibition of Factor 11, relative to PBS control.

Another data set relates to blood coagulation. Kind of data set: PT and aPTT assay in platelet poor plasma (Example 10). Format: in vivo. The note with it: BALB/c mice. The protocol: BALB/c mice were injected with 5 mg/kg, 10 mg/kg, 25 mg/kg, or 50 mg/kg of ISIS 404057 or ISIS 404071 twice a week for 3 weeks. A control group of mice was injected with phosphate buffered saline (PBS) twice a week for 3 weeks. Mice were sacrificed 5 days after receiving the last dose. Whole liver was harvested for RNA analysis and plasma was collected for clotting analysis (PT and aPTT) and protein analysis.
Prothrombin Time (PT) and Activated Partial Thromboplastin Time (aPTT) were measured using platelet poor plasma (PPP) from mice treated with ISIS 404057 and ISIS 404071. PT and aPTT values provided in Table 18 are reported as International Normalized Ratio (INR) values. INR values for PT and aPTT were determined by dividing the PT or aPTT value for each experimental group (i.e. 5 mg/kg, 10 mg/kg, 25 mg/kg, and 50 mg/kg treatment with ISIS 404057 or ISIS 404071) by the PT or aPTT for the PBS treated group. This ratio was then raised to the power of the International Sensitivity Index (ISI) of the tissue factor used.

The conditions of data set [1]: rat, in vivo, sc, 50 mg/kg.
The conditions of data set [2]: rat, in vivo, sc, 50 mg/kg. The source holds these as a separate data set.
Description: A control group of four Sprague Dawley rats was injected subcutaneously with PBS twice per week for 6 weeks. Body weight measurements were taken before and throughout the treatment period. Urine samples were taken before the start of treatment. Three days after the last dose, urine samples were taken and the rats were sacrificed. Organ weights were measured and blood was collected for further analysis.
Blood obtained from all rat groups were sent to Antech Diagnostics for hematocrit (HCT), mean corpuscular volume (MCV), mean corpuscular hemoglobin (MCV), and mean corpuscular hemoglobin concentration (MCHC) measurements and analyses, as well as measurements of various blood cells, such as WBC (neutrophils, lymphocytes and monocytes), RBC, and platelets as well as hemoglobin content.
The conditions of data set [3]: rat, in vivo, sc, 50 mg/kg. The source holds these as a separate data set.
The nature of data set [4]: Collagenase-induced intracerebral hemorrhage model: hemorrhage volume, neurologic deficit score, mortality (Example 25). It counts as in vivo, BALB/c mice. On the procedure: In a first cohort, ISIS 404071 was administered subcutaneously to BALB/c mice twice a week for two weeks at a dose 40 mg/kg. […] In a third cohort, ISIS 421208 ([…], 8 mismatches to murine Factor 11, incorporated herein as SEQ ID NO: 14) was administered subcutaneously to BALB/c mice twice a week for two weeks at a dose 40 mg/kg. In a fourth cohort, PBS was administered to BALB/c mice twice a week for two weeks.
Two days after receiving their final dose, all mice in all cohorts were anesthetized with […] of avertin. Next, the mice were injected at −1 mm AP, 1 mm R ML, −4 mm DV from bregma flat skull with a 10 μL Hamilton syringe containing 0.075 U collagenase (150 U/mL). Collagenase was delivered over 5 minutes and the needle was kept in place for an additional 5 minutes to prevent reflux. The mice were then analyzed for hemorrhagic size, neurologic deficit score, and mortality.
Table 37 presents the hemorrhage volume detected in mice after collagenase treatment, Table 38 presents the neurologic deficit score of the mice, and Table 39 presents the mortality rate of the mice. Neurological deficit is measured by a standard scoring system where no deficiency is zero and severe deficit is five.

[5] abbreviates: 5 mg/kg twice a week for 3 weeks.
[6] abbreviates: 10 mg/kg twice a week for 3 weeks.
The mark [7] stands for this setting: 25 mg/kg twice a week for 3 weeks.
Setting [8] is: 50 mg/kg twice a week for 3 weeks.
The mark [9] stands for this setting: 5-50 mg/kg twice a week for 3 weeks.

As for “ISIS 404057: antisense oligonucleotide targeted to murine Factor 11 mRNA, TCCTGGCATTCTCGAGCATT, target start site 487 (antisense eT*e[5mC]*e[5mC]*eT*eG*dG*d[5mC]*dA*dT*dT*d[5mC]*dT*d[5mC]*dG*dA*eG*e[5mC]*eA*eT*eT)”, the “Percent inhibition of mouse Factor 11 mRNA compared to PBS control” value in the data set with mouse Factor 11 mRNA (3 days after antidote/PBS, antisense 40 mg/kg s.c. twice a week for three weeks, ISIS 418026 90 mg/kg single injection where given) is on record as 95%. The “PT INR” value in the data set on blood coagulation (setting [5]) came to 1.00; with blood coagulation (setting [6]), 0.94; with blood coagulation (setting [7]), 1.02; in the data set with blood coagulation (setting [8]) it was 1.00. The “aPTT INR” value is given as 1.07 with blood coagulation (setting [5]), 1.19 with blood coagulation (setting [6]), 1.27 in the data set with blood coagulation (setting [7]) and 1.37 in the data set with blood coagulation (setting [8]). In addition, the “PT” value in the data set with blood coagulation (setting [9]) is “not significantly prolonged”. Also, the “aPTT” value in the data set with blood coagulation (setting [9]) was “prolonged in a dose-dependent manner”.
In data set [1], “ISIS 416892: 3-14-3 MOE gapmer GCCCTTCATGTCTAGGTCCA (sugars from the 5' end e3 d14 e3, backbone and methylation of C not given here)” yielded a BUN of 188 mg/dL and a Creatinine of 1 mg/dL. In data set [2], this substance had an HCT of 13%, an MCH of 2, an MCHC of 0% and an MCV of 1. Moreover, in data set [2], the Platelets is 66 10^3/μL, the RBC is on record as 12, the WBC is 68 nL⁻¹ and the hemoglobin stood at 14 g/dL. For the same substance, in data set [2], the lymphocytes worked out at 18%, the monocytes is 58% and the neutrophils was 92%. In data set [3], this substance had an ALT of 113 IU/L, an AST of 183 IU/L, an Albumin of 8 and a Bilirubin of 1 mg/dL.
In the case of “ISIS 416925: MOE gapmer, nucleobases 1275 to 1318 of SEQ ID NO: 1 (Table 8) (antisense GGTGCACAGTTTCTGGCAGG; MOE gapmer, wing and gap sizes not given here)”, in data set [1], the BUN is given as 7 mg/dL and the Creatinine came to 5 mg/dL. In data set [2], this substance gave an HCT of 8%, an MCH of 2, an MCHC of 4% and an MCV of 5. Further, in data set [2], the Platelets is 8 10^3/μL, the RBC came to 6, the WBC is 24 nL⁻¹ and the hemoglobin came to 6 g/dL. In data set [2], this substance showed a lymphocytes of 4%, a monocytes of 23% and a neutrophils of 20%. In data set [3], this substance displayed an ALT of 102 IU/L, an AST of 20 IU/L, an Albumin of 5 and a Bilirubin of 13 mg/dL.
Take “ISIS 416999: MOE gapmer, nucleobases 1275 to 1318 of SEQ ID NO: 1 (Table 8) (antisense GCACAGTTTCTGGCAGGCCT; MOE gapmer, wing and gap sizes not given here)”: in data set [1], the BUN came out at 2 mg/dL and the Creatinine stood at 4 mg/dL. For the same substance, in data set [2], the HCT is listed as 5%, the MCH stood at 3, the MCHC was 1% and the MCV came to 2. In data set [2], the Platelets is given as 12 10^3/μL, the RBC stood at 5, the WBC is 12 nL⁻¹ and the hemoglobin worked out at 6 g/dL. In data set [2], the lymphocytes worked out at 3%, the monocytes is 20% and the neutrophils came out at 23%. In data set [3], this substance came in with an ALT of 92 IU/L, an AST of 28 IU/L, an Albumin of 5 and a Bilirubin of 54 mg/dL.
In data set [1], “ISIS 417003: MOE gapmer, nucleobases 1275 to 1318 of SEQ ID NO: 1 (Table 8) (antisense TGGTGCACAGTTTCTGGCAG; MOE gapmer, wing and gap sizes not given here)” had a BUN of 9 mg/dL and a Creatinine of 9 mg/dL. In addition, in data set [2], the HCT came to 8%, the MCH is recorded as 4, the MCHC amounted to 4% and the MCV came to 6. In data set [2], the Platelets is given as 19 10^3/μL, the RBC was determined as 11, the WBC turned out to be 83 nL⁻¹ and the hemoglobin worked out at 11 g/dL. Also, in data set [2], the lymphocytes is given as 3%, the monocytes came out at 6% and the neutrophils was 17%. In addition, in data set [3], the ALT turned out to be 138 IU/L, the AST is reported as 23 IU/L, the Albumin is given as 6 and the Bilirubin was 50 mg/dL.
Regarding “ISIS 418026: ISIS 404071 specific antidote, CCTCTGAAAGTGGATTACCA; complementary to ISIS 404071 (listed as DNA, chemistry not given here)”, the “inhibition of Factor 11 mRNA expression in ISIS 404057 treated mice” value with mouse Factor 11 mRNA (BALB/c mice, ISIS 404057 40 mg/kg then ISIS 418026 90 mg/kg) is reported as “had no effect on inhibition of Factor 11 mRNA expression”.
With “ISIS 421208: TCGGAAGCGACTCTTATATG, 8 mismatches to murine Factor 11 (listed as DNA, chemistry not given here) [reference compound]”, the “Hemorrhagic volume after collagenase treatment” value in data set [4] (40 mg/kg s.c. twice a week for two weeks) turned out to be 41 mm^3. For the same substance, the “Neurologic Deficit Score after collagenase treatment” value in data set [4] (40 mg/kg s.c. twice a week for two weeks, score zero (no deficiency) to five (severe deficit)) was 2.0. The “% mortality after collagenase treatment” value in data set [4] (ISIS oligonucleotides 40 mg/kg s.c., warfarin 2 mg/kg intraperitoneally, twice a week for two weeks) is given as 0%.
